Laboratory results: US12171759B1, “Methods and uses for treating anhedonia” (Xenon Pharmaceuticals Inc., priority 2021, dated 2024)
Several values for one entry are separate records, joined by “and”; a condition that tells them apart may be missing. Identical values can stand only once. Entries after “also recorded” stand apart in the source; their conditions may differ.

System: male Long Evans rats
Test: Progressive ratio (PR) schedule of reinforcement for food (Progressive Ratio Test, PRT)
Type: in vivo, rat
Parameters: Sess. Duration: unit not given here
Settings: AVG
Experimental: The objective of this study was to test the effect of Compound A (1, 3, or 8 mg/kg, p.o.) on motivation as measured by rats responding for food under a progressive ratio (PR) schedule of reinforcement. Test measures included the total number of lever presses, and number of rewards (food pellets) acquired (break point).
The progressive ratio (PR) task is a cross species translational approach used as measure of motivational performance including as a measure of anhedonia (see, e.g., Hodos W., Science 1961, 134:943-944; Spierling et al., Physiol Behav. 2017, 177:99-106; Radke et al., Pharmacol Biochem Behav. 2015, 129:51-55; Hauser et al., Hormones and Behavior 2009, 56:364-375; Merali et al., Psychopharmacology 2003, 165:413-418; Marchese et al., Int J Neuropsychopharmacology 2013, 16:1611-1621; Karlsson et al., Hippocampus 2018, 28 (7): 512-522: Strauss et al., Schizophr Res. 2016, 170 (1): 198-204; and Gunthorpe et al., Epilepsia 2012, 53 (3): 412-424). In rodent species, the basic test design involves training subjects to lever press for a food reward (45 mg Bioserve pellets) under a schedule in which the number of responses required to achieve a pellet increased for successive reinforcers. The present study used a progression ratio derived from the equation ratio=[5×e^(0.2×reinforcer #)−5], and was as follows: 2, 4, 6, 9, 12, 15, 20, 25, 32, 40, 50, 62, 77, 95, 118, 145, 178, etc. Rats were therefore required to lever press a progressively increasing number of times to gain each successive reward, until reaching a break point, i.e., not meeting the schedule requirement. […] This provided a quantitative measurement of effort the animal would expend for the given reinforcer, which was interpreted as a measure of motivation. Based on the amount of food acquired during a typical test session (e.g., a break point of 10-12, corresponds to 0.45-0.54 g food), responding is limited by the amount of effort the animal is willing to expend for a single food pellet, rather than factors such as satiety.
Rats may be categorized based on differences in PR breakpoint, i.e., “low” and “high” responders. […] Motivational deficits are commonly seen in anhedonia associated with many neuropsychological disorders, such as depression, dementia, and schizophrenia (Lactôt et al., Alzheimer's and Dementia 2017, 13:84-100) and efficacy in treating “low” responder rats is indicative of efficacy in treating more significant or severe anhedonia.
The primary purpose of this proposal was to evaluate the effect of Compound A on motivational performance of Male Long Evans rats under a progressive ratio schedule. A large (N=32) cohort of rats were used and the effect of Compound A was investigated both in all rats, and also a “low” responder subgroup, based on the low tertile (N=11) cohort recorded over 5 days baseline responding prior to study commencement.
Dosage form: Compound A was suspended in 0.5% CMC-Na and 0.1% Tween 80 in purified water and sonicated until fully dissolved. Drug was administered at a volume of 10 mL/kg, orally.
Doses tested: 1, 3, 8 mg/kg.
Pretreatment time: 120 minutes.
Dosage form: D-Amp was suspended in 0.9% saline and sonicated until fully dissolved. Drug was administered at a volume of 1 mL/kg, intraperitoneally.
Pretreatment time: 10 minutes.
Test System: Thirty-two (32) experimentally non-naïve male Long Evans rats were included in the study.
Housing and Management of Test System: Animals were singly housed and maintained on a restricted diet regimen, in which they were fed approximately 18-20 g of standard laboratory chow once per day following the completion of study procedures (between 16:00 h and 18:00 h). Water was available ad-libitum, excluding during training/testing sessions. Animals were maintained on a 12 h/12 h light/dark cycle with all testing conducted during the animals' light cycle. All animal use procedures were performed in accordance with the principles of the Canadian Council on Animal Care (CCAC). […]

[1] = High responder subgroup (N=11), 0.6 mg/kg i.p.
[2] = Low responder subgroup (N=11), 0.6 mg/kg i.p.
[3] = all rats (N = 32), 0.6 mg/kg i.p., 10 min pretreatment
[4] = High responder subgroup (N=11), 1 mg/kg p.o.
[5] = High responder subgroup (N=11), 3 mg/kg p.o.
[6] = High responder subgroup (N=11), 8 mg/kg p.o.
[7] = Low responder subgroup (N=11), 1 mg/kg p.o.
[8] = Low responder subgroup (N=11), 3 mg/kg p.o.
[9] = Low responder subgroup (N=11), 3 mg/kg p.o., listed as Cpmd A
[10] = Low responder subgroup (N=11), 8 mg/kg p.o.
[11] = Low responder subgroup (N=11), 8 mg/kg p.o., listed as Cpmd A
[12] = all rats (N = 32), 1 mg/kg p.o., 120 min pretreatment
[13] = all rats (N = 32), 3 mg/kg p.o., 120 min pretreatment
[14] = all rats (N = 32), 3 mg/kg p.o., 120 min pretreatment, listed as Cpmd A
[15] = all rats (N = 32), 8 mg/kg p.o., 120 min pretreatment
[16] = all rats (N = 32), 8 mg/kg p.o., 120 min pretreatment, listed as Cpmd A

## C[C@H](N)Cc1ccccc1 [D-Amphetamine, reference compound]
[1]
  Rewards (break point): 17.5±0.9 and 17.5
  Sess. Duration: 52.4
[2]
  Rewards (break point): 12.2±1.2 and 12.2
  Sess. Duration: 44.5
[3]
  Lever Press: 893+131 and 893.0
  Rewards (break point): 14.7 ± 0.7 and 14.7
  Sess. Duration: 44.8

## Cc1cc(N2CCc3cc(F)ccc3C2)cc(C)c1NC(=O)CC(C)(C)C [Compound A, N-[4-(6-fluoro-3,4-dihydro-1H-isoquinolin-2-yl)-2,6-dimethylphenyl]-3,3-dimethylbutanamide]
[4]
  Lever Press: 707.5
  Rewards (break point): 14.6
  Sess. Duration: 21.2
[5]
  Lever Press: 623.9
  Rewards (break point): 14.3
  Sess. Duration: 24.3
[6]
  Lever Press: 700.0
  Rewards (break point): 14.6
  Sess. Duration: 20.8
[7]
  Lever Press: 141.5
  Rewards (break point): 8.2
  Sess. Duration: 15.5
[8]
  Lever Press: selectively increase; also recorded: statistical significance
  Rewards (break point): selectively increase; also recorded: statistical significance
  Sess. Duration: 23.2
[9]
  Lever Press: 272.7
  Rewards (break point): 10.7
[10]
  Lever Press: selectively increase; also recorded: statistical significance
  Rewards (break point): selectively increase; also recorded: statistical significance
  Sess. Duration: 22.6
[11]
  Lever Press: 258.0
  Rewards (break point): 10.5
[12]
  Lever Press: 392.4
  Rewards (break point): 11.5
  Sess. Duration: 16.9
[13]
  Lever Press: significant increase; also recorded: significantly increasing; also recorded: statistical significance
  Rewards (break point): significant increase; also recorded: significantly increasing; also recorded: statistical significance
  Sess. Duration: 22.6
[14]
  Lever Press: 439.3
  Rewards (break point): 12.5
[15]
  Lever Press: significant increase; also recorded: significantly increasing; also recorded: statistical significance
  Rewards (break point): significant increase; also recorded: significantly increasing; also recorded: statistical significance
  Sess. Duration: 21.1
[16]
  Lever Press: 479.8
  Rewards (break point): 12.8
